Earlier results as cited in US12378579B2, “Method to produce the anti-microbial diterpenoid leubethanol and related serrulatane-type diterpenes” (priority 2020, dated 2025).

Tested on: multi-drug-resistant tuberculosis
Conditions: pure compound from Leucophyllum frutescens; background statement

CC(C)=CCC[C@H](C)[C@@H]1CC[C@@H](C)c2c(O)cc(C)cc21 [leubethanol]
activity against multi-drug resistant tuberculosis: demonstrated activity
